Here are results for eight molecules from patent publication US12209038B2, “Effluent” (LINCOLN UNIVERSITY, priority 2019, dated 2025).

For test [1] the following is noted: 200 mg Fe/L of FDE, same rate of PFS and FS. As to the method:
The objective of Experiment 6 was to compare the effectiveness of ferric sulphate (FS) versus polyferric sulphate (PFS) to reduce methane emissions from treated effluent. Experiment 6 was conducted using the same large (3.5 m deep×0.5 m diameter) PVC pipes described in Experiment 5. The gas capture equipment and measurement process were also identical to that described in Experiment 5.
There were three treatments: (i) untreated FDE; (ii) TE produced using PFS and (iii) TE produced using FS. There were four replicates of each treatment set out in a randomised block design. Five hundred and sixty litres of farm dairy effluent were pumped from the FDE storage pond on Lincoln University Dairy Farm into each column leaving a head space height of 10 cm. The same rate of PFS and FS was used (200 mg Fe/L of FDE). The PFS and FS solution was mixed into the effluent for two minutes using a handheld electric drill fitted with a paddle stirrer.

The nature of test [2]: Experiment 7: glass jars, different sulphate and/or iron compounds, methane and hydrogen sulphide. Here is the method:
The objective of Experiment 7 was to measure the effect of different sulphate and/or iron compounds on emissions of methane and hydrogen sulphide gases from treated effluent. The experiment was conducted using the same 1.5 L glass jars and methods of measurement described in Experiment 2 above. There were 10 treatments: (i) untreated FDE, (ii) PFS treated effluent, (iii) calcium sulphate (CaSO4) treated effluent, (iv) potassium sulphate (K2SO4) treated effluent, (v) aluminium sulphate (Al2(SO4)3) treated effluent, (vi) magnesium sulphate (MgSO4) treated effluent, (vii) sodium sulphate (Na2SO4) treated effluent, (viii), ferrous sulphate (i.e. the divalent form of iron sulphate) (FeSO4) treated effluent, (ix) ferric chloride (FeCl3) treated effluent, and (x) ferrous chloride (FeCl2) treated effluent. The sulphate treatment chemicals were all used at the same rate of sulphate as applied in the PFS treatment (326 mg SO4/L) and the iron treatment chemicals were all used at the same rate of iron as applied in the PFS treatment (133 mg Fe/L).

Setting [3] is: iron chemicals at 133 mg Fe/L, same iron rate as PFS treatment.

Like-named read-outs stand apart in the source and are kept apart here.

Turning to `O=S(=O)([O-])[O-].O=S(=O)([O-])[O-].O=S(=O)([O-])[O-].[Fe+3].[Fe+3]` [FS, ferric sulphate], in test [1], the “effectiveness in reducing the methane emission flux compared with PFS” value was “equally as effective” and the “effectiveness in reducing the total amount of methane emitted compared with PFS” value was “equally as effective”.
Regarding `[Cl][Fe]([Cl])[Cl]` [ferric chloride], the “effectiveness in reducing methane emission compared with PFS” value in test [2] (setting [3]) is “not nearly as effective”.
In the case of `[Cl][Fe][Cl]` [ferrous chloride], the “effectiveness in reducing methane emission compared with PFS” value in test [2] (setting [3]) is reported as “not nearly as effective”.
For `O=S(=O)([O-])[O-].[K+].[K+]` [potassium sulphate], in test [2], the “amount of methane emitted from FDE” value is recorded as “can be reduced”; the “effectiveness in reducing methane emitted compared with PFS” value is given as “none of these chemicals were as effective as PFS”; the “emission of hydrogen sulphide (H2S)” value is given as “continued to produce, or enhanced the production of”.
Consider `O=S(=O)([O-])[O-].[Na+].[Na+]` [sodium sulphate], for which, in test [2], the “amount of methane emitted from FDE” value is “can be reduced”; the “effectiveness in reducing methane emitted compared with PFS” value is given as “none of these chemicals were as effective as PFS”; the “emission of hydrogen sulphide (H2S)” value was “continued to produce, or enhanced the production of”.
For the molecule `O=S(=O)([O-])[O-].[Ca+2]` [calcium sulphate], in test [2], the “amount of methane emitted from FDE” value is on record as “can be reduced”; the “effectiveness in reducing methane emitted compared with PFS” value was “none of these chemicals were as effective as PFS”; the “emission of hydrogen sulphide (H2S)” value was “continued to produce, or enhanced the production of”.
`O=S(=O)([O-])[O-].[Mg+2]` [magnesium sulphate]: in test [2], the “amount of methane emitted from FDE” value is reported as “can be reduced”; the “effectiveness in reducing methane emitted compared with PFS” value was “none of these chemicals were as effective as PFS”; the “emission of hydrogen sulphide (H2S)” value is “continued to produce, or enhanced the production of”.
Turning to `O=S(=O)([O-])[O-].[Fe+2]` [ferrous sulphate], the “effectiveness in reducing methane emission compared with PFS” value in test [2] is reported as “not nearly as effective”.
